Test results as given in patent US20240336604A1 (THE UNITED STATES OF AMERICA, AS REPRESENTED BY THE …, priority 2021, published 2024).
Several values for one entry are separate records, joined by “and”; a condition that tells them apart may be missing. Identical values can stand only once.

Tests used:
D3 DAR [1] = target: T1, D3 DAR (Homo sapiens, UniProt P35462); test: Go BRET activation assay, D3 DAR; assay type: cell-based; conditions: EC80 DA (30 nM); for Emax: 5 min, read-out: D3 Go BRET Imax
Protocol: Briefly, HEK293T cells transiently expressing either the D2 DAR or D3 DAR and GαoA-Rluc8, untagged-β1, and mVenus-γ2 were harvested with EBSS, plated in 96-well white plates at 20,000 cells/well in DPBS and incubated at RT for 45 min. […] BRET signal was determined by quantifying and calculating the ratio of the light emitted by mVenus (525 nm) over that emitted by RLuc8 (485 nm) using a PHERAstar FSX Microplate Reader (BMG Labtech).

D3 DAR [2] = target: T1, D3 DAR; test: DiscoverX D3 DAR β-arrestin recruitment assay; assay type: cell-based; set-up: host or cells: CHO; conditions: for Emax / D3 DAR Imax: Imax=maximum inhibition, EC80 DA (30 nM)
Source text: (§1) A D3 DAR β-arrestin cell line from DiscoverX (Fremont, CA) was used as described in the protocol below (Table 2). A CHO cell line engineered to overexpress the D3 DAR fused with a small 42-amino acid fragment of β-galactosidase called ProLink™ and a fusion protein consisting of β-arrestin and a larger N-terminal deletion mutant of β-galactosidase was used (DiscoverX catalogue number 93-0579C2). When the D3 DAR is activated by dopamine, it stimulates binding of β-arrestin to ProLink-tagged D3 DARs, and the two complementary parts of β-galactosidase form a functional enzyme. When substrate (PathHunter® Detection reagent, DiscoverX 93-0001) is added, β-galactosidase hydrolyzes it and generates a chemiluminescent signal.

D3 DAR [3] = target: T1, D3 DAR; test: [3H]-methylspiperone radioligand binding assay; conditions: single high 40 μM concentration
Protocol: Compounds were tested for their ability to compete with the orthosteric radioligand [^3H]-methylspiperone for binding to the D3 DAR using HEK cells transiently transfected with the D3 DAR as described in the detailed protocol below presented in Table 5. Cells were cultured in Dulbecco's modified Eagle's Medium (Corning, catalogue no. 10-013) containing 10% FBS, 1,000 units/mL Penicillin, […] Streptomycin, 100 mM sodium pyruvate, 1 μg/mL Gentamicin, and […] G418. All cells were maintained at 37° C. in 5% CO2 and 90% humidity. For radioligand binding assays cells were removed mechanically using calcium-free Earle's balanced salt solution (EBSS). Intact cells were collected by centrifugation and then lysed with 5 mM Tris-HCl and 5 mM MgCl2 at pH 7.4. Homogenates were centrifuged at 30,000×g for 30 minutes. The membranes were re-suspended in EBSS (US Biological, catalogue no. E0249-05) pH 7.4 to a concentration of 16 μg/mL. For competition binding studies, membrane preparations were incubated for 90 minutes at room temperature with various concentrations of compound and a single concentration of [^3H]-methylspiperone (Perkin Elmer, NET856) in a reaction volume of […]. Non-specific binding was determined in the presence of 4 μM (+)-butaclamol (Sigma-Aldrich, catalogue no. D033). Bound ligand was separated from unbound by filtration through GF/C filters using a PerkinElmer cell harvester and quantified on a Top-count (PerkinElmer). Ki values were determined using Cheng-Prusoff equation from observed IC50 values and ligand Kd values from separate saturation experiments.

D2 DAR = D2 DAR (Homo sapiens, UniProt P14416); test: DiscoverX D2 DAR β-arrestin recruitment assay; assay type: cell-based; set-up: host or cells: CHO; conditions: for antagonism of dopamine activation of the D2 DAR: DiscoverX β-arrestin assay, FIG. 2B; for D2 DAR Imax / IC50: EC80 concentration of DA (1 μM)
Source text: For a secondary-screen and selectivity assays, DAR PathHunter®-arrestin GPCR cell lines from DiscoverX (Fremont, CA) were used. In the D2 DAR PathHunter®-arrestin GPCR cell line, the D2 DAR is overexpressed and fused with a small 42-amino acid fragment of β-galactosidase called ProLink™ on a CHO cellular background expressing a fusion protein of β-arrestin and a larger N-terminal deletion mutant of β-galactosidase (“enzyme acceptor”). When the D2 DAR is activated by dopamine, it stimulates binding of β-arrestin to the ProLink-tagged DAR and the two complementary parts of β-galactosidase form a functional enzyme. When substrate (PathHunter™ Detection reagent) is added, β-galactosidase hydrolyzes it and generates a chemiluminescent signal.

D3 DAR [4] = target: T1, D3 DAR; test: Functional curve-shift assays using the DiscoverX β-arrestin recruitment assay; assay type: cell-based; set-up: host or cells: CHO; conditions: for IC50: agonist dopamine, read-out: Functional IC50 for decreasing the Emax of dopamine; for mode of antagonism in curve-shift assays: versus agonist (dopamine, pramipexole)
Source text: To further assess the mechanism of action of Cmp. […] 1 (FIGS. 4B and 4D). […] Average curves are shown (mean±SEM from at least 3 experiments each performed in triplicate). […] In contrast, increasing concentrations of Cmp.
1. FIG. 6A-C panels show concentration-response curves of dopamine in the absence or presence of increasing concentrations of compound. Cmp. […] 18 (FIG. 6A), Cmp. 5 (FIG. 6B), and Cmp. 17 (FIG. 6C), respectively. Average curves are shown (mean±SEM from at least 3 experiments, each performed in triplicate).
as §1

[5] = DiscoverX β-arrestin assay, FIG. 1A, 2A, read-out: IC50, inhibition of dopamine-stimulated β-arrestin recruitment to the D3 DAR
[6] = EC80 concentration of DA (30 nM), read-out: D3 DAR IC50

D2 DAR, sequence (P14416 whole entry, the tested form may be a part): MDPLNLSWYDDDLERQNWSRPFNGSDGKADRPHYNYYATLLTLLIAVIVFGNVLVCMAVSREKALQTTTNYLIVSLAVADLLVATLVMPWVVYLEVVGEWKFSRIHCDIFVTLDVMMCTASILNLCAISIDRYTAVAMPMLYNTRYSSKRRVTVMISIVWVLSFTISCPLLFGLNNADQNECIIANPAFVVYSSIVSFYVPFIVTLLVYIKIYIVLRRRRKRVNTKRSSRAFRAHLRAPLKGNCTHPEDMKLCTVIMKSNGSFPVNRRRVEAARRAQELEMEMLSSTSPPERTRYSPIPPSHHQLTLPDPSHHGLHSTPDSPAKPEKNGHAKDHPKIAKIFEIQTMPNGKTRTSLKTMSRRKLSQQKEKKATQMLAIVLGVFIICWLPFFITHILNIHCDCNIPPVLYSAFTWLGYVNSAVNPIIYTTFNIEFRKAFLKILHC
T1 sequence (P35462 whole entry): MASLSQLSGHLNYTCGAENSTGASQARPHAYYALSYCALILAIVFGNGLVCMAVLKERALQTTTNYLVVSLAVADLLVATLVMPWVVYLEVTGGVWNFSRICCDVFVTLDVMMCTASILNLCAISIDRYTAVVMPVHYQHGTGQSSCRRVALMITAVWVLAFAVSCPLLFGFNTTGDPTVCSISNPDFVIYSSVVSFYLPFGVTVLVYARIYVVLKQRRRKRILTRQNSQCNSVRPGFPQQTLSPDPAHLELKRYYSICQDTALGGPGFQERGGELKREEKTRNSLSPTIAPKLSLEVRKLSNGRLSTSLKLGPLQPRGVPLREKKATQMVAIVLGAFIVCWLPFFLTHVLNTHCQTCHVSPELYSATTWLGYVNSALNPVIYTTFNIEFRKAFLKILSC

Row | Compound | IC50 (D3 DAR [1]) | IC50 (D3 DAR [2]; [5]) | IC50 (D3 DAR [2]; [6]) | Emax (D3 DAR [2]) | D2 DAR Imax (D2 DAR) | IC50 (D2 DAR) | Emax (D3 DAR [1]) | IC50 (D3 DAR [4]) | mode of antagonism in curve-shift assays (D3 DAR [4]) | inhibition of [3H]-methylspiperone binding to the D3 DAR (D3 DAR [3]) | antagonism of dopamine activation of the D2 DAR (D2 DAR) | D3 DAR Imax (D3 DAR [2]) | D3 Go BRET Imax (D3 DAR [1])
1 | CCOC(=O)C1=NOC2(C1)C(=O)Nc1ccc(OC(F)(F)F)cc12 (racemic) [Cmp. 25, Ethyl 2-oxo-5-(trifluoromethoxy)-4′H-spiro[indoline-3,5′-isoxazole]-3′-carboxylate] | > 50 µM | ~13 µM and ~15 µM | 10 to 50 µM | 80 to 100% | NA (“NA” indicates not active) | > 100 µM |  |  |  | neither compound exhibited measurable ability to inhibit the binding | lacks ability to antagonize dopamine activation |  | 
2 | Cc1[nH]c(C)c(S(=O)(=O)Nc2ccc(C(F)(F)F)c(Cl)c2)c1C(=O)N1CCCC1 [Cmp. 5] | 1 to 10 µM |  | < 10 µM | 80 to 100% | NA (“NA” indicates not active) | > 100 µM | 80 to 100% | 2.3 µM | noncompetitive antagonism |  |  |  | 
3 | Cc1[nH]c(C)c(S(=O)(=O)Nc2ccc(C(F)(F)F)c(Br)c2)c1C(=O)N1CCCC1 [Cmp. 18] | > 50 µM |  | < 10 µM | 80 to 100% | NA (“NA” indicates not active) | > 100 µM | 80 to 100% | 3.6 µM | noncompetitive antagonism |  |  |  | 
4 | Cc1cccc(CNC(=O)c2sc(=O)n(Cc3c(C)cccc3C)c2C)c1 [Cmp. 26] |  | ~30 µM | 10 to 50 µM | 80 to 100% | NA (“NA” indicates not active) | > 100 µM |  |  |  | neither compound exhibited measurable ability to inhibit the binding | lacks ability to antagonize dopamine activation |  | 
5 | Cc1[nH]c(C)c(S(=O)(=O)Nc2ccc(F)cc2)c1C(=O)N1CCCC1 [compound 32] | 1 to 10 µM |  | > 100 µM |  | NA (“NA” indicates not active) | > 100 µM | > 100% |  |  |  |  | Curve Incomplete | 
6 | CCNC(=O)c1c(C)[nH]c(C)c1S(=O)(=O)Nc1ccc(C(F)(F)F)c(Cl)c1 [compound 33, 4-(N-(3-chloro-4-(trifluoromethyl)phenyl)sulfamoyl)-N-ethyl-2,5-dimethyl-1H-pyrrole-3-carboxamide] | 10 to 50 µM |  | < 10 µM | 80 to 100% | NA (“NA” indicates not active) | > 100 µM | > 100% |  |  |  |  |  | 
7 | Cc1[nH]c(C)c(S(=O)(=O)Nc2cc(Cl)c(C(F)(F)F)c(Cl)c2)c1C(=O)N1CCC(F)(F)C1 [compound 35, N-(3,5-dichloro-4-(trifluoromethyl)phenyl)-4-(3,3-difluoropyrrolidine-1-carbonyl)-2,5-dimethyl-1H-pyrrole-3-sulfonamide] | < 1 µM |  | < 10 µM | 80 to 100% | NA (“NA” indicates not active) | > 100 µM | 80 to 100% |  |  |  |  |  | 
8 | Cc1[nH]c(C)c(S(=O)(=O)Nc2ccc(C3CC3)c(Cl)c2)c1C(=O)N1CCC(F)(F)C1 [compound 36, N-(3-chloro-4-cyclopropylphenyl)-4-(3,3-difluoropyrrolidine-1-carbonyl)-2,5-dimethyl-1H-pyrrole-3-sulfonamide] | 1 to 10 µM |  | 10 to 50 µM | 80 to 100% | NA (“NA” indicates not active) | > 100 µM | 80 to 100% |  |  |  |  |  | 
9 | N-(3-choro-4-methylphenyl)-2,5-dimethyl-4-(pyrrolidine-1-carbonyl)-1H-pyrrole-3-sulfonamide [compound 31] | 10 to 50 µM |  | > 100 µM |  | Curve Incomplete | > 100 µM |  |  |  |  |  | Curve Incomplete | ++ (a “++” indicates a detectable Imax of more than 100%, indicative of possible inverse agonist activity)

Continued, in another order:

Row | IC50 (D3 DAR [1]) | IC50 (D3 DAR [2]; [5]) | IC50 (D3 DAR [2]; [6]) | Emax (D3 DAR [2]) | D2 DAR Imax (D2 DAR) | IC50 (D2 DAR) | Emax (D3 DAR [1]) | IC50 (D3 DAR [4]) | mode of antagonism in curve-shift assays (D3 DAR [4]) | Compound | inhibition of [3H]-methylspiperone binding to the D3 DAR (D3 DAR [3]) | antagonism of dopamine activation of the D2 DAR (D2 DAR) | D3 DAR Imax (D3 DAR [2]) | D3 Go BRET Imax (D3 DAR [1])
10 | > 50 µM |  | 10 to 50 µM | 80 to 100% | NA (“NA” indicates not active) | > 100 µM |  |  |  | O=C(c1c(S(=O)(=O)Nc2ccc(C(F)(F)F)c(Cl)c2)c[nH]c1C(F)(F)F)N1CCCC1 [compound 37] |  |  |  | 
11 | 1 to 10 µM |  | < 10 µM | 80 to 100% | NA (“NA” indicates not active) | > 100 µM | > 100% |  |  | Cc1ccc(NS(=O)(=O)c2c(C)[nH]c(C(F)(F)F)c2C(=O)N2CCCC2)cc1Cl [compound 38] |  |  |  | 
12 | 1 to 10 µM |  | 10 to 50 µM | 80 to 100% | NA (“NA” indicates not active) | > 100 µM | > 100% |  |  | CCc1[nH]c(CC)c(S(=O)(=O)Nc2ccc(C(F)(F)F)c(Cl)c2)c1C(=O)N1CCCC1 [compound 39, N-(3-chloro-4-(trifluoromethyl)phenyl)-2,5-diethyl-4-(pyrrolidine-1-carbonyl)-1H-pyrrole-3-sulfonamide] |  |  |  | 
13 | 10 to 50 µM |  | 10 to 50 µM | 80 to 100% | NA (“NA” indicates not active) | > 100 µM | > 100% |  |  | Cc1[nH]c(C)c(S(=O)(=O)Nc2cc(Cl)cc(C(F)(F)F)c2)c1C(=O)N1CCC(F)(F)C1 [compound 40, N-(3-chloro-5-(trifluoromethyl)phenyl)-4-(3,3-difluoropyrrolidine-1-carbonyl)-2,5-dimethyl-1H-pyrrole-3-sulfonamide] |  |  |  | 
14 | 10 to 50 µM |  | 10 to 50 µM | 80 to 100% | NA (“NA” indicates not active) | > 100 µM | > 100% |  |  | Cc1[nH]c(C)c(S(=O)(=O)Nc2ccc(Cl)cc2C(F)(F)F)c1C(=O)N1CCC(F)(F)C1 [compound 42] |  |  |  | 
15 | > 50 µM |  | < 10 µM | 80 to 100% | NA (“NA” indicates not active) | > 100 µM |  |  |  | CCOC(=O)C1=NOC2(C1)C(=O)Nc1ccc(OC(F)(F)F)cc12 (stereo not shown) [compound 44] |  |  |  | NA (NA means not active)
16 |  |  |  |  |  |  |  |  | behaves in a competitive manner | CCN1CCCC1CNC(=O)c1cc(S(N)(=O)=O)ccc1OC (stereo not shown) [sulpiride, reference compound] |  |  |  | 
